Earlier results, collected in patent US20170112865A1, “TREATMENT FOR MELANOMA” (The Board of Regents of the University of Texas System, priority 2014, published 2017).

Legend:
[1] = tested on: BRAFV600E/k mutant advanced or malignant melanoma
[2] = tested on: BRAF V600E mutation-positive advanced melanoma; details: human, in vivo
[3] = in vivo
[4] = in vivo; remark: listed apart in the source
[5] = tested on: melanoma; details: at 5 years

**Q.** What does the source list for `CC(=O)Nc1cccc(-n2c(=O)n(C3CC3)c(=O)c3c(Nc4ccc(I)cc4F)n(C)c(=O)c(C)c32)c1` [Trametinib]?
**A.** Grade 3 adverse effect: hypertension ([1]; Trametinib arm): 12%; Grade 3 adverse effect: rash ([1]; Trametinib arm): 7%; most frequent adverse events ([1]; in vivo): skin rash, diarrhea, edema, hypertension, fatigue

**Q.** With `CC(C)(C)c1nc(-c2cccc(NS(=O)(=O)c3c(F)cccc3F)c2F)c(-c2ccnc(N)n2)s1` [dabrafinib, Dabrafenib] as the compound, how does the “time within which resistance occurs” value [2] read?
**A.** 6 to 7 months

**Q.** For `C[C@H]1O[C@@H](O[C@H]2[C@@H](O)C[C@H](O[C@H]3[C@@H](O)C[C@H](O[C@H]4CC[C@@]5(C)[C@H](CC[C@@H]6[C@@H]5C[C@@H](O)[C@]5(C)[C@@H](C7=CC(=O)OC7)CC[C@]65O)C4)O[C@@H]3C)O[C@@H]2C)C[C@H](O)[C@@H]1O` [digoxin, Digoxin], which half-life [3] is on record?
**A.** about 36 hours

**Q.** And the “plasma concentration at which adverse effects are rare” value [4]?
**A.** < 0.8 ng/mL

**Q.** With interferon as the compound, how does the increase in survival [5] read?
**A.** 3%
